From paper PMC11013252, “Exploration of the Antibacterial and Anti-Inflammatory Activity of a Novel Antimicrobial Peptide Brevinin-1BW” (Molecules, 2024)
Values after ≈ are worked out from the molar mass of the structure shown. Positions of bridges follow the written chain, without caps; N, C: chain ends. Residues, ends and D or L forms follow the SMILES beside them.

Assays:
Test in all cases: microbe, parasite or virus in culture
[1] = test system: K. pneumoniae (ATCC700603); assay type: cell-based, Klebsiella pneumoniae; settings: ATCC700603, 18 h
Protocol: (§1) The minimum inhibitory concentration (MIC) of the Brevinin-1BW was measured in 96-well microtiter plates according to the Clinical and Laboratory Standards Institute (CLSI). The activated strains were treated with Mueller Hinton Agar (MHA) solid medium. Single colonies were picked and expanded to the logarithmic growth phase, and the solution was diluted to 2 × 10^6 CFU/mL using the McFarland turbidity standard. The MIC was determined with the two-fold dilution method. Briefly, 50 μL of Mueller Hinton (MH) medium was added to a 96-well plate in advance. Then, 50 μL of AMP solution was added to the first well, and 50 μL was pipetted into the next well after mixing using a row gun, while 50 μL was discarded from the last well. Final concentrations of Brevinin-1BW were 100, 50, 25, 12.5, 6.25, and 3.125 μg/mL. A 50 μL volume of the diluted bacterial solution was added, and the final concentration of the bacterial solution was 1 × 10^6 CFU/mL. This was then placed into a 37 °C incubator for 18 h until the next day to observe the degree of turbidity of the 96-well plate and measure the absorbance of the wells at 600 nm with a multifunctional microplate reader (SpectraMax iD5, Molecular Devices, Sunnyvale, CA, USA). The absence of turbidity and the measured concentration of absorbance being less than the opposing group was taken as the MIC. The positive control used ampicillin at the same final concentration as Brevinin-1BW, the negative control used 50 μL of MH medium mixed with 50 μL of 2 × 10^6 CFU/mL bacterial solution, and the blank contained only 100 μL of MH medium. Three replicate wells were set up for each experiment, and each experiment was repeated three times. The MIC and all concentrations above the MIC of bacterial solution coated on MHA solid medium were placed into 37 °C incubator incubation for 18 h. The lowest concentration resulting in no colony growth was taken as the minimum bactericidal concentration (MBC).

[2] = test system: S. epidermidis (CI 1607BL1D39); assay type: cell-based, Staphylococcus epidermidis; settings: CI 1607BL1D39, 18 h
Protocol: as §1

[3] = test system: E. coli (MDR ATCC35218); assay type: cell-based, Escherichia coli; settings: ATCC35218, 18 h
Protocol: as §1

CC[C@H](C)[C@@H]1NC(=O)[C@H](CCCCN)NC(=O)[C@@H](NC(=O)[C@H](Cc2ccccc2)NC(=O)[C@@H](NC(=O)[C@@H](NC(=O)[C@@H]2CCCN2C(=O)[C@H](CC(C)C)NC(=O)[C@H](Cc2ccccc2)NC(=O)[C@H](CO)NC(=O)[C@H](C)NC(=O)[C@H](C)NC(=O)[C@H](CC(C)C)NC(=O)CNC(=O)[C@H](C)NC(=O)[C@H](CC(C)C)NC(=O)[C@H](CC(C)C)NC(=O)[C@@H]2CCCN2C(=O)[C@H](CC(C)C)NC(=O)[C@@H](N)Cc2ccccc2)[C@@H](C)O)[C@@H](C)CC)CSSC[C@@H](C(=O)O)NC(=O)[C@H](CCCCN)NC(=O)[C@H](CCCNC(=N)N)NC(=O)[C@H](CO)NC1=O [Brevinin-1BW] (H-FLPLLAGLAASFLPTIFCKISRKC-OH; disulfide 18-24)
MBC [1]: >100 µg/mL | MIC [1]: >100 µg/mL | MBC [2]: 25 µg/mL (≈ 9.58 µM) | MIC [2]: 12.5 µg/mL (≈ 4.79 µM) | MBC [3]: >100 µg/mL | MIC [3]: >100 µg/mL
